Source: US6794396B2, “Substituted pyridines useful for inhibiting cholesteryl ester transfer protein activity” (Pharmacia Corporation, priority 1998, dated 2004)
Read-outs that look alike come from different tables or passages of the source.

Legend:
CETP [1] = target: T1, CETP (Homo sapiens, UniProt P11597); assay: CETP activity in vitro: transfer of [3H]CE from HDL donor to LDL acceptor particles; assay type: biochemical
T1 construct: made in house; host or cells: CHO cells (serum-free conditioned medium)
T1 sequence (P11597 18-493): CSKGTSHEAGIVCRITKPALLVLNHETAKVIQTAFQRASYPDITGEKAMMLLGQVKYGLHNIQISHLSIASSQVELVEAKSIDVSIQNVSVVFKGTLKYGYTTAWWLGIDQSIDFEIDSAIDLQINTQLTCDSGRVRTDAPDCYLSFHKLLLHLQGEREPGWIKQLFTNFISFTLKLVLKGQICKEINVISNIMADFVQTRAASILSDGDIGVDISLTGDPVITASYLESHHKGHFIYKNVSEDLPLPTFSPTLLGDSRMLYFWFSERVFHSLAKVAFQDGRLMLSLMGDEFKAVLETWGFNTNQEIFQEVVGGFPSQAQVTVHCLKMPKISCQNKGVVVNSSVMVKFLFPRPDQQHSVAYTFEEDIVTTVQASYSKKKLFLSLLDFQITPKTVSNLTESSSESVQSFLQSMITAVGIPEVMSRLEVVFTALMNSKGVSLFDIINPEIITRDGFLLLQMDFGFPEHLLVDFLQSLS
Method in brief: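 CETP from conditioned medium of CETP-transfected CHO cells incubated with [3H]CE-labelled HDL donor and LDL acceptor, pH 7.4 Tris buffer with NaCl, EDTA and 1% BSA, 2 h at 37 °C. LDL precipitated with dextran sulfate/MgCl2, filtered, and transferred radioactivity counted; IC50 reported.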

[2] = target: T2, CETP in human plasma or serum pool (Homo sapiens, UniProt P11597); assay: Whole serum CETP activity assay (tritiated cholesterol ester); assay type: biochemical; conditions: 4 hours at 37° C.
T2 construct: from tissue; host or cells: pooled human EDTA plasma or serum from healthy volunteers
T2 sequence (P11597 18-493): T1 sequence (P11597 18-493)
Description: Blood was obtained from healthy volunteers recruited from the personnel of Monsanto Company, Saint Louis, Mo. Blood was either collected in tubes containing EDTA (EDTA plasma pool) or in tubes without EDTA (spun to form the serum pool). The EDTA human plasma pool or human serum pool, previously stored at −20° C., was thawed at room temperature, and centrifuged for 5 minutes to remove any particulate matter. Tritiated HDL, radiolabeled in the cholesteryl ester moiety ([^3H]CE-HDL) as described by Morton and Zilversmit (J. Biol. Chem., 256, 11992-95 (1981) which is incorporated by reference herein), was added to the plasma or serum to a final concentration of (25 μg/ml cholesterol).
Inhibitor compounds were added to the plasma or serum as follows: Equal volumes of the plasma or serum containing the [^3H]CE-HDL (396 μl) were pipetted into micro tubes (Titertube®, Bio-Rad Laboratories, Hercules, Calif.). Compounds, usually dissolved as 20-50 mM stock solutions in DMSO, were serially diluted in DMSO (or an alternative solvent in some cases, such as dimethylformamide or ethanol). Four μl of each of the serial dilutions of inhibitor compounds or DMSO alone were then added to each of the plasma or serum tubes. The tubes were immediately mixed. Triplicate aliquots (100 μl) from each plasma or serum tube were then transferred to wells of 96-well round-bottomed polystyrene microtiter plates (Corning, Corning, N.Y.). Plates were sealed with plastic film and incubated at 37° C. for 4 hours.
Test wells contained plasma or serum with dilutions of inhibitor compounds. Control wells contained plasma or serum with DMSO alone. Blank wells contained plasma or serum with DMSO alone that were left in the micro tubes at 4° C. for the 4 hour incubation and were added to the microtiter wells at the end of the incubation period. VLDL and LDL were precipitated by the addition of 10 μl of precipitating reagent (1% (w/v) Dextran Sulfate (Dextralip50)/0.5M magnesium chloride, pH 7.4) to all wells. The wells were mixed on a plate mixer and then incubated at ambient temperature for 10 min. The plates were then centrifuged at 1000×g for 30 mins at 10° C. The supernatants (50 μl) from each well were then transferred to Picoplate™ 96 plate wells (Packard, Meriden, Conn.) containing […] Microscint™-40 (Packard, Meriden, Conn.). The plates were heat-sealed (TopSeal™-P, Packard, Meriden, Conn.) according to the manufacturers directions and mixed for 30 min.
Radioactivity was measured on a microplate scintillation counter (TopCount, Packard, Meriden, Conn.). […] The maximum percent transfer (in the control wells) was determined using the following equation: [formula]
The percent of control transfer determined in the wells containing inhibitor compounds was determined as follows: [formula]
IC50 values were then calculated from plots of % control versus concentration of inhibitor compound.

CETP [3] = assay: Inhibition of CETP activity in vivo: [3H]CE transfer from HDL to VLDL and LDL after intravenous injection; design: species or system golden Syrian hamster; conditions: hamsters, injection into jugular vein, four hours
Text: Inhibition of CETP by a test compound can be determined by administering the compound to an animal by intravenous injection, determining the rate of transfer of tritium-labeled cholesteryl ester (^3H]CE) from HDL to VLDL and LDL particles, and comparing the rate of transfer with the rate of transfer observed in control animals.
Male golden Syrian hamsters were maintained on a diet of chow containing 0.24% cholesterol for at least two weeks prior to the study. Immediately before the experiment, animals were anesthetized with pentobarbital. Anesthesia was maintained throughout the experiment. Indwelling catheters were inserted into the jugular vein and carotid artery. Test compound, Dimethyl 5,5′-dithiobis[2-difluoromethyl)-4-(2-methylpropyl)-6-(trifluoromethyl)-3-pyridinecarboxylate] (Compound 181), was dissolved as a 80 mM stock solution in vehicle (2% ethanol: 98% PEG 400, Sigma Chemical Company, St. Louis, Mo., USA). At the start of the experiment all animals received 0.2 ml of a solution containing [^3H]-CE-HDL into the jugular vein. [^3H[-CE-HDL is a preparation of human HDL containing tritium-labeled cholesteryl ester, and was prepared according to the method of Glenn et al. (“Quantification of Cholesteryl Ester Transfer Protein (CETP): A) CETP Activity and B) Immunochemical Assay of CETP Protein,” Meth. Enzymol., Glenn and Melton (Meth. Enzymol., 263, 339-351 (1996) which is incorporated herein by reference).
After 2 minutes, the animals received 0.1 ml of the test solution injected into the jugular vein. Control animals received 0.1 ml of the vehicle solution without test compound. After 5 minutes, the first blood samples (0.5 ml) were taken from the carotid artery and collected in standard microtainer tubes containing ethylenediamine tetraacetic acid. Saline (0.5 ml) was injected to flush the catheter and replace blood volume. Subsequent blood samples were taken at two hours and four hours by the same method. Blood samples were mixed well and kept on ice until the completion of the experiment.
Plasma was obtained by centrifugation of the blood samples at 4° C. The plasma (50 μl) was then treated with 5 μl of precipitating reagent (dextran sulfate, 10 g/l; 0.5M magnesium chloride to remove VLDL/LDL. After centrifugation, the resulting supernatant (25 μl) containing the HDL was analyzed for radioactivity using a liquid scintillation counter. The percentage [^3H] CE transferred from HDL to LDL and VLDL (% transfer) was calculated based on the total radioactivity in equivalent serum samples before precipitation. Typically, the amount of transfer from HDL to LDL and VLDL in control animals was 30 to 35% after four hours. The polyethylene glycol vehicle was determined to have no effect on CETP activity in this model.
(Compound 181), and five animals that received vehicle. At two hours, mean values of 13% [^3H]-Ce transfer from HDL to LDL and VLDL were obtained for the control animals, but only 4.7% transfer for the animals receiving Compound 181. […] Student t-tests were performed to determine if the means for control and animals treated with Compound 181 were statistically different.

[4] = Table 6, compounds of formula T-6, read-out: IC50

SMILES	IC50 (CETP [1]; 50% inhibition of [3H]CE transfer from HDL to LDL, 2 hours at 37° C., read-out: IC50(μm)) [µM]	IC50 whole serum CETP activity [2] [µM]	% Transfer of [3H]-CE from HDL to LDL and VLDL (CETP [3]) [%]	% Inhibition of CETP activity (CETP [3]; versus control animals) [%]	IC50 (CETP [1]; Table 5, compounds of formula T-5, read-out: IC50) [µM]	IC50 (CETP [1]; [4]) [µM]
COC(=O)c1c(C(F)F)nc(C(F)(F)F)c(S)c1CC(C)C [Compound 7, Methyl 2-(Difluoromethyl)-5-mercapto-4-(2-methylpropyl)-6-(trifluoromethyl)-3-pyridinecarboxylate]	8.75	17	10.6	50	–	–
COC(=O)c1c(C(F)F)nc(C(F)(F)F)c(SSc2ccc(C(C)(C)C)cc2)c1CC(C)C [Compound 180, Methyl 5-(4-t-Butylphenyldithio)-2-(difluoromethyl)-4-(2-methylpropyl)-6-(trifluoromethyl)-3-pyridinecarboxylate]	–	9	–	–	0.45	–
COC(=O)c1c(C(F)F)nc(C(F)(F)F)c(CSc2ccc(Cl)c(Cl)c2)c1CC(C)C [Compound 214, Methyl 5-[(3,4-Dichlorophenyl)thiomethyl]-2-(difluoromethyl)-4-(2-methylpropyl)-6-(trifluoromethyl)-3-pyridinecarboxylate]	–	70	–	–	–	2
COC(=O)c1c(C(F)F)nc(C(F)(F)F)c(CSc2ccc3ccccc3c2)c1CC(C)C [Compound 215, Methyl 5-[(2-Naphthyl)thiomethyl]-2-(difluoromethyl)-4-(2-methylpropyl)-6-(trifluoromethyl)-3-pyridinecarboxylate]	–	110	–	–	–	2
